Reference: ChEMBL document CHEMBL6096636 (Bioorg Med Chem, 2024)

Tests used:
[1] = Cytotoxicity against human HepG2 cells assessed as inhibition of cell growth incubated for 72 hrs by CCK8 assay; assay type: toxicity, cell-based
[2] = Cytotoxicity against HEK293T cells assessed as inhibition of cell growth incubated for 72 hrs by CCK8 assay; assay type: toxicity, cell-based, HEK-293T; conditions: human
[3] = Selectivity index, ratio of IC50 for human HepG2 cells to IC50 for erythrocytic stage of Plasmodium falciparum 3D7; assay type: toxicity, cell-based; conditions: read-out: Ratio IC50
[4] = Selectivity index, ratio of IC50 for HEK293T cells to IC50 for erythrocytic stage of Plasmodium falciparum 3D7; assay type: toxicity, cell-based; conditions: human, read-out: Ratio IC50
[5] = system: Plasmodium falciparum; test: microbe, parasite or virus in culture; conditions: 3D7, 72 h
Description: Antimalarial activity against erythrocytic stage of Plasmodium falciparum 3D7 assessed as inhibition of growth incubated for 72 hrs by SYBR green I based assay

[6] = system: Plasmodium falciparum; test: microbe, parasite or virus in culture; conditions: Dd2, 72 h
Description: Antimalarial activity against erythrocytic stage of chloroquine-resistant Plasmodium falciparum Dd2 assessed as inhibition of growth incubated for 72 hrs by SYBR green I based assay

| SMILES | IC50 at 72 h [1] | IC50 at 72 h [2] | selectivity ratio [3] | selectivity ratio [4] | IC50 [5] | IC50 [6] |
| --- | --- | --- | --- | --- | --- | --- |
| O=C(NO)c1cnc(N[C@H]2CC[C@@H](NCc3cc4ccccc4c4ccccc34)CC2)nc1 | 1290 nM | 2010 nM | 120 | 187 | 10.7 nM | 12.3 nM |
| O=C(NO)c1cnc(N[C@H]2CC[C@@H](NCC3CCCC3)CC2)nc1 | 5490 nM | 5880 nM | 55 | 59 | 100 nM | 70.1 nM |
| O=C(NO)c1cnc(N[C@H]2CC[C@@H](NCc3ccsc3)CC2)nc1 | > 10000 nM | > 10000 nM | > 76 | > 76 | 132 nM | 71.2 nM |
| O=C(NO)c1cnc(N[C@H]2CC[C@@H](NCc3ccccc3)CC2)nc1 |  | 4620 nM |  | 44 |  | 54.6 nM |
| O=C(NO)c1cnc(N[C@H]2CC[C@@H](NCc3ccc4ccccc4n3)CC2)nc1 | 2430 nM | 2890 nM | 233 | 278 | 10.4 nM | 14.3 nM |
| O=C(NO)c1cnc(N[C@H]2CC[C@@H](NCc3cccnc3)CC2)nc1 | 4580 nM | 4240 nM | 40 | 37 | 114 nM | 56.5 nM |
| Cn1cc(CN[C@H]2CC[C@@H](Nc3ncc(C(=O)NO)cn3)CC2)c2ccccc21 | 1770 nM | 4310 nM | 163 | 399 | 10.8 nM | 11.9 nM |
| Cn1cc(CN[C@H]2CC[C@@H](Nc3ncc(C(=O)NO)cn3)CC2)c2cnccc21 | > 10000 nM | > 10000 nM | > 157 | > 157 | 63.8 nM | 51.3 nM |
| Cn1cc(CN[C@H]2CC[C@@H](Nc3ncc(C(=O)NO)cn3)CC2)c2ncccc21 | > 10000 nM | 1250 nM | > 214 | 27 | 46.7 nM | 38.3 nM |
| O=C(NO)c1cnc(N[C@H]2CC[C@@H](NCC3CCCCC3)CC2)nc1 | 5840 nM | 3630 nM | 67 | 41 | 87.6 nM | 53.4 nM |
| Cn1c(CN[C@H]2CC[C@@H](Nc3ncc(C(=O)NO)cn3)CC2)nc2ccccc21 | > 10000 nM | > 10000 nM | > 510 | > 510 | 19.6 nM | 26.4 nM |
| O=C(NO)c1cnc(N[C@H]2CC[C@@H](NCc3ccccn3)CC2)nc1 | > 10000 nM | > 10000 nM | > 72 | > 72 | 138 nM | 210 nM |
| O=C(NO)c1cnc(N[C@H]2CC[C@@H](NCc3ccc4cc(F)ccc4n3)CC2)nc1 | 3620 nM | 2380 nM | 324 | 213 | 11.2 nM | 15.8 nM |
| Cn1cc(CN[C@H]2CC[C@@H](Nc3ncc(C(=O)NO)cn3)CC2)c2ccc(Br)cc21 | 2220 nM | 4830 nM | 100 | 217 | 22.2 nM | 19 nM |
| O=C(NO)c1cnc(N[C@H]2CC[C@@H](NCc3c4ccccc4cc4ccccc34)CC2)nc1 | 858 nM | 1030 nM | 95 | 114 | 9 nM | 7.5 nM |
| O=C(NO)c1cnc(N[C@H]2CC[C@@H](NCc3cccc4ccncc34)CC2)nc1 | 7080 nM | 7080 nM | 163 | 163 | 43.4 nM | 62.1 nM |
| Cn1cc(CN[C@H]2CC[C@@H](Nc3ncc(C(=O)NO)cn3)CC2)c2cccnc21 | > 10000 nM | > 10000 nM | > 209 | > 209 | 47.9 nM | 53.9 nM |
| O=C(NO)c1cnc(N[C@H]2CC[C@@H](NCc3ccncc3)CC2)nc1 | > 10000 nM | > 10000 nM | > 64 | > 64 | 156 nM | 186 nM |
| O=C(NO)c1cnc(N[C@H]2CC[C@@H](NCc3csc4ccccc34)CC2)nc1 | 1360 nM | 1940 nM | 54 | 77 | 25.3 nM | 34.8 nM |
| Cn1cc(CN[C@H]2CC[C@@H](Nc3ncc(C(=O)NO)cn3)CC2)c2ccc(F)cc21 | 3190 nM | 6000 nM | 267 | 501 | 12 nM | 14.5 nM |
| O=C(NO)c1cnc(N[C@H]2CC[C@@H](NCc3ccc4ccc5cccc6ccc3c4c56)CC2)nc1 | 2130 nM | 2640 nM | 70 | 87 | 30.3 nM | 28.8 nM |
| O=C(NO)c1cnc(N[C@H]2CC[C@@H](NCc3ccc4ncccc4c3)CC2)nc1 | 6380 nM | 6980 nM | 143 | 157 | 44.5 nM | 47.2 nM |
| O=C(NO)c1cnc(N[C@H]2CC[C@@H](NCc3cccc4cccnc34)CC2)nc1 | > 10000 nM | > 10000 nM | > 152 | > 152 | 65.6 nM | 53.6 nM |
| O=C(NO)c1cnc(N[C@H]2CC[C@@H](NCc3ccoc3)CC2)nc1 | > 10000 nM | > 10000 nM | > 91 | > 91 | 109 nM | 106 nM |
| O=C(NO)c1cnc(N[C@H]2CC[C@@H](NCc3ccc4ccccc4c3)CC2)nc1 | 1130 nM | 1790 nM | 73 | 116 | 15.4 nM | 15.4 nM |
| O=C(NO)c1cnc(N[C@H]2CC[C@@H](NCc3cccc4ccccc34)CC2)nc1 | 642 nM | 1530 nM | 19 | 47 | 34.3 nM | 39.5 nM |
| O=C(NO)c1cnc(N[C@H]2CC[C@@H](NCc3coc4ccccc34)CC2)nc1 | 2580 nM | 3110 nM | 51 | 61 | 50.8 nM | 35.5 nM |
| Cn1cc(CN[C@H]2CC[C@@H](Nc3ncc(C(=O)NO)cn3)CC2)c2ccc(Cl)cc21 | 2500 nM | 3650 nM | 146 | 213 | 17.1 nM | 18 nM |
| O=C(NO)c1cnc(N[C@H]2CC[C@@H](NCc3cnc4ccccc4c3)CC2)nc1 | 3340 nM | 4360 nM | 123 | 161 | 27.1 nM | 37.6 nM |
| Cn1nc(CN[C@H]2CC[C@@H](Nc3ncc(C(=O)NO)cn3)CC2)c2ccccc21 | 5790 nM | 5740 nM | 212 | 210 | 27.3 nM | 31.2 nM |
